Test results reported in article PMC3950666, “Cellular trafficking determines the exon skipping activity of Pip6a-PMO in mdx skeletal and cardiac muscle cells” (Nucleic Acids Research, 2013).
pEC50: −log10 of the molar value. Where two headings read alike, the source gives them in different places.

Tests used:
[1] = 1 µM concentration; cited from earlier work
From the text: A full comparison of EC50 values is difficult since ...

[2] = tested on: dystrophin pre-mRNA exon 23 in C2C12 myotubes; assay: Exon 23 skipping by nested RT-PCR in differentiated C2C12 myotubes; format: cell-based, mouse; details: serum-containing transfection media, 24 h post-treatment
Method: Figure S3. Exon skipping efficiency of Pip6a-PMO in C2C12 skeletal muscle cells. C2C12 cells were differentiated for 6 days and thereafter incubated with Pip6a-PMO under serum condition (+S). Transfections were carried out for 4 h under serum conditions and cells were incubated further with serum-containing medium for 20 h. Exon skipping efficiency was evaluated on pre-mRNA levels by nested RT-PCR. Products were separated by gel electrophoresis and exon skipping values were derived from densitometric analysis. (Percentage of exon skipping (%ES) calculated as described in Figure S1 with n≥4).

[3] = tested on: dystrophin pre-mRNA exon 23 in primary wild-type cardiomyocytes; assay: Exon 23 skipping by nested RT-PCR in primary wild-type cardiomyocytes; format: cell-based, mouse; details: for %ES (percentage of exon skipping): 1000 nM, WT (healthy) cardiomyocytes, serum-containing medium, 24 h post-treatment, n ≥ 4
H2k mdx myotubes = assay: Cellular uptake by fluorescence spectroscopy in H2k mdx myotubes
Method: After incubation with 3′-fluorescein labelled Pip6a-PMO or 3′-fluorescein-labelled PMO, cells were washed twice with PBS and lysed with 300 µl GLB buffer (Promega). In all, 100 µl of the lysate were transferred into black non-binding 96-well plates (Greiner) and fluorescence was measured on a Tecan plate reader (Ex 485 nm/Em 520 nm). Protein concentration was measured by a BCA kit (Pierce) on a Tecan plate reader (Abs 560 nm).

[4] = tested on: dystrophin pre-mRNA exon 23 in primary mdx cardiomyocytes; assay: Exon 23 skipping by nested RT-PCR in primary mdx cardiomyocytes; format: cell-based, mouse
[5] = tested on: dystrophin pre-mRNA exon 23 in H2k mdx myoblasts; assay: Exon 23 skipping by nested RT-PCR in undifferentiated H2k mdx myoblasts; format: cell-based, mouse
[6] = tested on: dystrophin pre-mRNA exon 23 in H2k mdx myotubes; assay: Exon 23 skipping by nested RT-PCR in differentiated H2k mdx myotubes; format: cell-based, mouse

(RXRRBR)2 [B-PMO, PMO covalently linked to the (RXRRBR)2 B-peptide, previously described PPMO]
reported exon-skipping level [1]: ~45%

Ac-RXRRBRRXRYQFLIRXRBRXRB-OH [Pip6a-PMO, Pip6a peptide conjugated by amide linkage to the 5′-amino linker of the PMO; carries 3′-fluorescein label unless mentioned as unlabelled]
pEC50 [2]: 6.97 | %ES (percentage of exon skipping) [3]: 44% | change of exon skipping with 48 h incubation ([3]; 48 h post-treatment compared with 24 h, primary wild type cardiomyocytes, Supplementary Figure S7): did not increase significantly | effect of EIPA on cellular delivery and exon-skipping activity (H2k mdx myotubes; 250 nM, 4 h, EIPA 10 µM, 30 min pre-treatment, n ≥ 4): only negligible effects | effect of CPZ on cellular delivery and exon-skipping activity (H2k mdx myotubes; 250 nM, 4 h, chlorpromazine 30 µM, 30 min pre-treatment, n ≥ 4): only negligible effects | effect of nystatin on uptake and exon 23-skipping efficiency (H2k mdx myotubes; 250 nM, 4 h, nystatin 50 µM, 30 min pre-treatment, n ≥ 4): pronounced effect | increase of uptake in myotubes versus myoblasts (H2k mdx myotubes; H2k mdx cells, 4 h incubation, fluorescence spectroscopy): 2 fold | pEC50 ([4]; primary cardiomyocytes from neonatal mdx and wild-type mice, not distinguished, approximate): ~6.00 | EC50 in H2k mdx myoblasts relative to H2k mdx myotubes ([5]; 183 nM in myoblasts compared with myotubes): ~6 times | pEC50 ([5]; undifferentiated H2k mdx myoblasts, data not shown): 6.74 | exon skipping ([6]; 1 µM, statement of the discussion): complete exon skipping | pEC50 ([6]; 48 h post-treatment (4 h transfection, then 44 h serum-containing medium), serum condition (+S), read-out: EC50 at 48 h (exon 23 skipping)): 7.70 | pEC50 ([6]; serum-free medium (-S), 24 h post-treatment, Prism 5.0 after normalization of the Δ23 skipping, read-out: EC50 (concentration required to achieve 50% exon 23 skipping)): 7.39 | pEC50 ([6]; serum-supplemented transfection medium (+S), 24 h post-treatment, Prism 5.0 after normalization, read-out: EC50 (exon 23 skipping)): 7.52

PMO: phosphorodiamidate morpholino oligomer 5′-GGCCAAACCTCGGCTTACCTGAAAT-3′ with 5′-amino linker and 3′-fluorescein label, Gene Tools (morpholino, 5'-amino linker, 3'-fluorescein, chemistry not fully specified) [reference compound]
%ES (percentage of exon skipping) ([3]; listed as naked PMO): failed to induce any exon skipping | cellular uptake (fluorescence) (H2k mdx myotubes; 1000 nM, 4 h incubation, cell lysate fluorescence Ex 485 nm/Em 520 nm): no uptake | %ES (percentage of exon skipping) ([4]; 1000 nM, mdx cardiomyocytes, serum-containing medium, 24 h post-treatment, n ≥ 4, listed as naked PMO): failed to induce any exon skipping
